Test results reported in article PMC11161644, “An effective and rapidly degradable disinfectant from disinfection byproducts” (Nature Communications, 2024).
“And” between values parts separate entries of the source, which are not always exact repeats. Equal entries are not always repeated. Where two headings read alike, the source gives them in different places.

Key:
S. aureus (ATCC 25923) = experiment: Inactivation of S. aureus (contact time 5 min); type: cell-based, Staphylococcus aureus; details: Staphylococcus aureus, ATCC25923, 5 min, pH 7.2, read-out: Log (N/N0), S. aureus; dose 300 mg L-1; pH 7.2; contact time 5 min
Description: (§1) The chemicals and reagents used are detailed in Supplementary Note 1. The bacteria E. coli (ATCC 25922) and S. aureus (ATCC 25923) were cultured aerobically in Luria-Bertani broth (Sigma-Aldrich) and Tryptone Soya broth (Oxoid), respectively, at 37 °C for 16 h. The fungus C. albicans (ATCC 14053) was aerobically cultured in Sabouraud Dextrose broth (Difco) at 37 °C for 24 h. The microorganism cells were harvested by centrifugation at 1200×g (10 min, 4 °C) and resuspended in phosphate-buffered saline (PBS, 10 mM, pH 7.2). The disinfection experiments were performed in PBS solutions (10 mM, pH 7.2) with an initial concentration of E. coli, S. aureus, or C. albicans of 10^6‒10^7 cells per milliliter. A contact time of 5 min was used in accordance with the recommended time range of 0.25–10 min by USEPA for surface disinfection. Preliminary tests were conducted to determine the appropriate range of DBP doses. The appropriate dose range was established when the lowest and highest doses could achieve <1-log and >3-log of microbial inactivation, respectively. Based on the preliminary results, a series of doses of DBPs were added to the cell suspensions at room temperature (22 ± 1 °C). After the contact time of 5 min, the microorganism cells were enumerated following a membrane filter method. Briefly, serial 10-fold dilutions were conducted for the disinfected samples and the control sample without disinfection. Each diluted suspension was subjected to filtration through 0.45-μm membrane, which was then placed on a petri dish. The Petri dishes containing E. coli, S. aureus, and C. albicans were incubated in m-FC medium (Becton Dickinson & Co) at 45 °C for 24 h, in Tryptone Soya broth at 37 °C for 24 h and in Sabouraud Dextrose broth at 37 °C for 24 h, respectively. After incubation, the colony-forming units within a statistically reasonable range (20–80) were counted.

[1] = Degradation in seawater with simulated solar irradiation; details: for half-life at 10 mg L−1: buffer, pH 8.2; for Ln (C/C0): seawater pH 8.2, solar irradiation
Description: The solar photolysis experiments were conducted in a chamber equipped with eight simulated sunlight full-spectrum lamps (BlueMax 5900, Full Spectrum Solutions). The temperature in the chamber was maintained at 20 °C. The total intensity of simulated sunlight was determined using a digital photometer (DT-1010B, Shenzhen Golden Octopus, China). Quartz flasks were positioned in the chamber where the total intensity of simulated sunlight was 4.79 ± 0.04 mW cm^−2 for each quartz flask. […] A DBP was added at 10 mg L^−1 to 50 mL pretreated seawater (pH 8.2) in the quartz flasks and exposed to the simulated solar irradiation for 0‒96 h. Every 8 h, the quartz flasks were rotated in and out of the chamber, and the sample volume was determined and adjusted with ultrapure water to account for any water evaporation. During the solar irradiation experiments, the sample was adjusted to pH 6.2 and 7.2 or maintained at pH 8.2 by adding 4 mM phosphate buffer (pH 6.2, 7.2, and 8.2, respectively).
(§2) For the DBP samples with and without sunlight, aliquots were taken at a specific reaction time. The sample aliquots were analyzed using Agilent high-performance liquid chromatography (HPLC) equipped with a Poroshell 120 EC-C18 column (4.6 × 150 mm, 4 µm particle size, Agilent) and a UV detector. The mobile phase, consisting of water (pre-adjusted to pH 2 with phosphoric acid) and acetonitrile at 50/50 (v/v), was applied at a flow rate of 1.0 mL min^−1. PCMX, 2,4-dihalophenols and 5-halosalicylic acids were detected at the wavelength of 230 nm. 2,5-Dihalohydroquinones and 2,6-DCQ were detected at the wavelength of 280 nm. All the degradation experiments were conducted in duplicate.

[2] = Degradation in seawater in darkness (pH 6.2, 7.2, 8.2); details: for Ln (C/C0): seawater pH 8.2, darkness
Description: To study the DBP degradation in seawater in darkness, a DBP was added at 10 mg L^−1 to 50 mL pretreated seawater (pH 8.2) in the quartz flasks. The flasks were wrapped with aluminum foil to simulate the dark condition. The samples were kept at 20 °C in darkness for 0‒120 h, during which the sample was adjusted to pH 6.2 and 7.2 or maintained at pH 8.2 by adding 4 mM phosphate buffer (pH 6.2, 7.2, and 8.2, respectively).
as §2

E. coli (ATCC 25922) = experiment: Inactivation of E. coli by disinfectants (membrane filter enumeration, contact time 5 min); type: cell-based, Escherichia coli; details: for log reduction at 1200 µg/mL / EC (3-log inactivation) / log reduction at 350 µg/mL: Escherichia coli, ATCC25922, 5 min; for log reduction at 1200 µg/mL: dose 1200 mg L-1; for log reduction at 1200 µg/mL / log reduction at 350 µg/mL: 5 min; for EC (3-log inactivation): pH 7.2, read-out: Dose for achieving 3-log inactivation of E. coli; for E. coli inactivation rate constant k: pH 7.2, contact time 5 min; for log reduction at 350 µg/mL: dose 350 mg L-1
Description: as §1
The impact of pH on the disinfection efficiencies of DBPs was examined. E. coli (ATCC 25922) was used as the test strain. The disinfection experiments were performed in 10 mM PBS solutions (pH 6.2, 7.2, and 8.2) with an initial E. coli concentration of 10^6‒10^7 cells per milliliter. To initiate the disinfection, a DBP was dosed with a bacteria suspension at a predetermined concentration. After the given contact time (5 min) at room temperature (22 ± 1 °C), the bacteria were enumerated following the membrane filter method. The bacteria concentrations in the 10 mM PBS solutions (pH 6.2, 7.2, and 8.2) without the addition of DBPs were used as controls.

P. dumerilii embryos = experiment: Developmental toxicity assay with P. dumerilii embryos, dilution factor of in-use concentration (EC50,DF), also after degradation in darkness; type: in vivo, Platynereis dumerilii
Source text: The DBP doses for 3-log E. coli reduction (pH 7.2) were set as the in-use concentrations, which were serially diluted and added to the P. dumerilii embryos at 12-h postfertilization. A dilution factor was defined as the ratio of the in-use concentration to the exposure concentration. Each exposure set contained a control sample (i.e., the embryos at 12-h postfertilization developed in seawater without the addition of DBPs). By 24-h postfertilization, normally developed embryos should have reached the first larval stage. An inverted stereomicroscope (×40 magnification) was used to observe the larvae. The normal development percentage was calculated as the ratio of normally developed embryos to total embryos. By plotting the curve of the normal development percentage versus the dilution factor, the EC50,DF value (i.e., the dilution factor corresponding to 50% of the normal development percentage of the control sample) was obtained using SigmaPlot 12. The developmental toxicity test was conducted in duplicate.

C. albicans (ATCC 14053) = experiment: Inactivation of C. albicans (contact time 5 min); type: cell-based, Candida albicans; details: Candida albicans, ATCC14053, 5 min, pH 7.2, read-out: Log (N/N0), C. albicans; dose 300 mg L-1; pH 7.2; contact time 5 min
Description: as §1

[3] = test system: bacteriophage MS2 (ATCC 15597-B1); experiment: Inactivation of bacteriophage MS2 (double-layer agar, contact time 5 min); type: cell-based; details: Escherichia phage MS2, ATCC15597, 5 min, pH 7.2, read-out: Log (N/N0), MS2; dose 300 mg L-1; pH 7.2; contact time 5 min
Description: The bacteriophage MS2 (ATCC 15597-B1) was propagated in the host E. coli (ATCC 15597) in Tryptone Soya broth at 37 °C for 16 h. The viruses were separated from the bacterial debris and purified by centrifuging the phage culture (4000×g, 10 min, 4 °C) and filtering the lysate with a 0.2 μm polyethersulfone sterile filter. The filtrate was then diluted in PBS (10 mM, pH 7.2) to an initial MS2 concentration of 10^9‒10^10 plaque-forming units […]. To initiate the disinfection experiments, a series of DBP doses were added to the MS2 suspension at room temperature (22 ± 1 °C). […] Briefly, serial 10-fold dilutions were conducted for the disinfected samples and the control sample without disinfection. Each dilution was mixed with the host E. coli in the soft agar and the mixture was immediately spread onto a Petri dish with Tryptone Soya agar. After the Petri dishes were incubated at 37 °C for 16 h, the plaque-forming units were counted. The disinfection experiments were performed in duplicate. All the materials for the disinfection experiments were autoclaved before use.

[4] = pH 6.2, read-out: Log (N/N0), E. coli, pH 6.2
[5] = pH 7.2, read-out: Log (N/N0), E. coli, pH 7.2
[6] = pH 8.2, read-out: Log (N/N0), E. coli, pH 8.2

## Oc1cc(Cl)c(O)cc1Cl [2,5-DCHQ, 2,5-dichlorohydroquinone]
S. aureus (ATCC 25923)
  log reduction at 300 µg/mL: 0.434
[1]
  half-life at 10 mg L−1: 0.12 h
[1]; 0 min
  Ln (C/C0): 0
[2]; buffer, pH 8.2
  half-life at 10 mg L−1: 7.8 min
[2]; pH 6.2, degradation time 0 min
  Relative concentration remaining (1 at 0 min): 1
[2]; pH 6.2, degradation time 15 min
  Relative concentration remaining (1 at 0 min): 1.022 and 0.9793
[2]; pH 6.2, degradation time 30 min
  Relative concentration remaining (1 at 0 min): 0.9852 and 1.003
[2]; pH 6.2, degradation time 60 min
  Relative concentration remaining (1 at 0 min): 1.02 and 0.9636
[2]; pH 6.2, degradation time 90 min
  Relative concentration remaining (1 at 0 min): 0.9949 and 0.9533
[2]; pH 6.2, degradation time 120 min
  Relative concentration remaining (1 at 0 min): 0.9685 and 0.9533
[2]; pH 6.2, degradation time 180 min
  Relative concentration remaining (1 at 0 min): 0.9436 and 0.9061
[2]; pH 6.2, degradation time 240 min
  Relative concentration remaining (1 at 0 min): 0.9109 and 0.8967
[2]; pH 7.2, degradation time 0 min
  Relative concentration remaining (1 at 0 min): 1
[2]; pH 7.2, degradation time 15 min
  Relative concentration remaining (1 at 0 min): 0.972 and 0.958
[2]; pH 7.2, degradation time 30 min
  Relative concentration remaining (1 at 0 min): 0.8774 and 0.8538
[2]; pH 7.2, degradation time 45 min
  Relative concentration remaining (1 at 0 min): 0.7996 and 0.7512
[2]; pH 7.2, degradation time 60 min
  Relative concentration remaining (1 at 0 min): 0.6873 and 0.677
[2]; pH 7.2, degradation time 90 min
  Relative concentration remaining (1 at 0 min): 0.5344 and 0.5155
[2]; pH 7.2, degradation time 120 min
  Relative concentration remaining (1 at 0 min): 0.3928 and 0.369
[2]; pH 7.2, degradation time 180 min
  Relative concentration remaining (1 at 0 min): 0.2793 and 0.2513
[2]; pH 8.2, degradation time 0 min
  Relative concentration remaining (1 at 0 min): 1
[2]; pH 8.2, degradation time 3 min
  Relative concentration remaining (1 at 0 min): 0.7671 and 0.7343
[2]; pH 8.2, degradation time 8 min
  Relative concentration remaining (1 at 0 min): 0.4955 and 0.4354
[2]; pH 8.2, degradation time 12 min
  Relative concentration remaining (1 at 0 min): 0.3245 and 0.3105
[2]; pH 8.2, degradation time 16 min
  Relative concentration remaining (1 at 0 min): 0.2259 and 0.2074
[2]; pH 8.2, degradation time 20 min
  Relative concentration remaining (1 at 0 min): 0.1584 and 0.1371
[2]; pH 8.2, degradation time 25 min
  Relative concentration remaining (1 at 0 min): 0.1047 and 0.0786
[2]; 0 min
  Ln (C/C0): 0
E. coli (ATCC 25922); [4]
  log reduction at 1200 µg/mL: 2.28
E. coli (ATCC 25922)
  EC (3-log inactivation): 946 µg/mL
  E. coli inactivation rate constant k: 0.05 L mg‒1 h‒1
E. coli (ATCC 25922); [5]
  log reduction at 1200 µg/mL: 3.73
E. coli (ATCC 25922); [6]
  log reduction at 1200 µg/mL: 4.18
P. dumerilii embryos; dilution factor 557.542
  Normal development (%): 8.642% and 6.061%
P. dumerilii embryos; dilution factor 1115.08
  Normal development (%): 42.6369% and 40.0555%
P. dumerilii embryos; dilution factor 1393.85
  Normal development (%): 77.0891% and 77.2417%
P. dumerilii embryos; dilution factor 2787.71
  Normal development (%): 85.5556% and 87.7778%
P. dumerilii embryos; dilution factor 5575.42
  Normal development (%): 88.6789% and 83.1961%

## Oc1ccc(Br)cc1Br [2,4-DBPh, 2,4-dibromophenol]
S. aureus (ATCC 25923)
  log reduction at 300 µg/mL: 0.669
C. albicans (ATCC 14053)
  log reduction at 300 µg/mL: 1.67
[1]
  half-life at 10 mg L−1: 35 h
[1]; 0 h
  Ln (C/C0): 0
[2]; 0 h
  Ln (C/C0): 0
E. coli (ATCC 25922); [4]
  log reduction at 350 µg/mL: 3.35
E. coli (ATCC 25922)
  EC (3-log inactivation): 341 µg/mL
  E. coli inactivation rate constant k: 0.28 L mg‒1 h‒1
E. coli (ATCC 25922); [5]
  log reduction at 350 µg/mL: 3.26
E. coli (ATCC 25922); [6]
  log reduction at 350 µg/mL: 3.57
P. dumerilii embryos; dilution factor 11.1486
  Normal development (%): 0%
P. dumerilii embryos; dilution factor 13.3783
  Normal development (%): 15.2624% and 20.2196%
P. dumerilii embryos; dilution factor 16.7229
  Normal development (%): 45.6306% and 47.4814%
P. dumerilii embryos; dilution factor 22.2972
  Normal development (%): 71.5034% and 77.6566%
P. dumerilii embryos; dilution factor 33.4458
  Normal development (%): 83.2326% and 85.1374%
P. dumerilii embryos; dilution factor 66.8916
  Normal development (%): 89.9171% and 84.7809%
P. dumerilii embryos; dilution factor 133.783
  Normal development (%): 89.4695% and 80.5305%
[3]
  log reduction at 300 µg/mL: 0.966
